Assay results as given in ChEMBL document CHEMBL1909046, “DrugMatrix in vitro pharmacology data”.

Columns and labels:
[1] = molecular target: T1, Muscarinic acetylcholine receptor M4 (Homo sapiens, UniProt P08173); assay type: cell membranes, CHO-K1, Membrane; settings: cho-k1
T1 sequence (P08173 whole entry): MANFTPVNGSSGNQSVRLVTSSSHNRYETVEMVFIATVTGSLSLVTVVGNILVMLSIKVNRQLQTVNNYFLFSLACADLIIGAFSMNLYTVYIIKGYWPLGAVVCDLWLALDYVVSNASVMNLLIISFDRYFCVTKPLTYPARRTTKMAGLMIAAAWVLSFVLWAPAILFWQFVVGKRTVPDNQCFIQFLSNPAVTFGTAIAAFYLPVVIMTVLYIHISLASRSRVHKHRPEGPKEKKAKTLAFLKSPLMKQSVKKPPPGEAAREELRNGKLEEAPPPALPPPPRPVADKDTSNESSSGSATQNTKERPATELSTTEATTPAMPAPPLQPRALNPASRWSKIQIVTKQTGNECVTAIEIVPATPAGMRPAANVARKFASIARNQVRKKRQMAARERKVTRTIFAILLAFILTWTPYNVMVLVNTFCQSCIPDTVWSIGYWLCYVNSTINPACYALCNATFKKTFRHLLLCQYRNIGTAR

[2] = molecular target: T2, Neuropeptide Y receptor type 1 (Homo sapiens, UniProt P25929); assay type: cell membranes, Membrane; settings: sk-n-mc
T2 sequence (P25929 whole entry): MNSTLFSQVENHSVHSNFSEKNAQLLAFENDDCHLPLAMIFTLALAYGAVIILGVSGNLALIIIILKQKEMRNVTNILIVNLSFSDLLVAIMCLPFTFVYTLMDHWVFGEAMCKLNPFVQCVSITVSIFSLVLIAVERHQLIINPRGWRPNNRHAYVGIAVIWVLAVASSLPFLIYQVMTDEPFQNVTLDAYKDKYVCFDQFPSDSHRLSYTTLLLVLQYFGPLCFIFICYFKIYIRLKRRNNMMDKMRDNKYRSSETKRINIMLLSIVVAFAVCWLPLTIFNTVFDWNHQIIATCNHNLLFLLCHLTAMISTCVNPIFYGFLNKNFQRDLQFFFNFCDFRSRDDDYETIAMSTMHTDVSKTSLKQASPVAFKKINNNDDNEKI

[3] = molecular target: T3, Nitric oxide synthase, inducible (Mus musculus, UniProt P29477); design: species or system Escherichia coli;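 also: inhibition of iNOS enzyme activity measured with L-arginine as substrate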
T3 sequence (P29477 whole entry): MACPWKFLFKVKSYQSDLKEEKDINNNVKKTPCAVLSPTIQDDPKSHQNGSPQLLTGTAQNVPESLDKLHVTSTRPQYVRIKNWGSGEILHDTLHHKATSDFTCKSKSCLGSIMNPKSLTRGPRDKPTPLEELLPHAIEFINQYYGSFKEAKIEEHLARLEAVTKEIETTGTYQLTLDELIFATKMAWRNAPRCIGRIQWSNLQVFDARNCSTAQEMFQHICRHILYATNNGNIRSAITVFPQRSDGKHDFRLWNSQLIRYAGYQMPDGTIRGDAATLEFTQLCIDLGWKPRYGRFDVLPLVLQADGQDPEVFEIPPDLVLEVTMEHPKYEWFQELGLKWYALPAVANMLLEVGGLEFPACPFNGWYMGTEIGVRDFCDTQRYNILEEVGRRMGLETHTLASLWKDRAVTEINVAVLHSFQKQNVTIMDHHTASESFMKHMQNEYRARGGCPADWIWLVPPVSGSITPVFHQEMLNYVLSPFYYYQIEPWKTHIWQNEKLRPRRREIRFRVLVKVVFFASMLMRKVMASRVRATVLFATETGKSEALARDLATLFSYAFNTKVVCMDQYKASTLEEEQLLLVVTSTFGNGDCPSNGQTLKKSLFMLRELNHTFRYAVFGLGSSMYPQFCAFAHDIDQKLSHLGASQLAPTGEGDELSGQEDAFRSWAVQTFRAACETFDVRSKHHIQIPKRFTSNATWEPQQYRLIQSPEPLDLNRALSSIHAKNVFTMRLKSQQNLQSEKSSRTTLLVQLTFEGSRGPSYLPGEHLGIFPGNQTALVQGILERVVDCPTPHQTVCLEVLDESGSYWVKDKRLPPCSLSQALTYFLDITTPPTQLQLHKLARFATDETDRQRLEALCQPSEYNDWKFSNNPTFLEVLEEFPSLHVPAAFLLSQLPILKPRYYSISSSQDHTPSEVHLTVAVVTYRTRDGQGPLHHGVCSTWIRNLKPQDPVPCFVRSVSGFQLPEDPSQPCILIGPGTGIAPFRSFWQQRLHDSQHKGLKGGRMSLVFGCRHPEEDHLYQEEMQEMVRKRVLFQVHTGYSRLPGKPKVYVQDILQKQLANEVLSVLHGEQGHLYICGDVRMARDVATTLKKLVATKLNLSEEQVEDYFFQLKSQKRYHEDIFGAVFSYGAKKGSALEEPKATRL

[4] = molecular target: Delta-type opioid receptor (Homo sapiens, UniProt P41143); assay type: cell membranes, HEK293, Membrane; settings: hek293
Chain of Delta-type opioid receptor (P41143 whole entry): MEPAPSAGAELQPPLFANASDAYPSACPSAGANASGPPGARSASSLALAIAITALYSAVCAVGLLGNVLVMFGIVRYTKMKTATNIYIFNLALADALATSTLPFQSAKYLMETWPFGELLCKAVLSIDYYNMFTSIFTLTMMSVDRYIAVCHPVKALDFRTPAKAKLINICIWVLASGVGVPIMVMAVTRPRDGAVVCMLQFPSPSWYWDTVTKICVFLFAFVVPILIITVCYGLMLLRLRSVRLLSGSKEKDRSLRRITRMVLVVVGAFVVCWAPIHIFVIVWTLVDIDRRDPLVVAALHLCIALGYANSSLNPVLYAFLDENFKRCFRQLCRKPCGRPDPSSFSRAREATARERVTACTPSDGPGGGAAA

Adenosine receptor A3 = molecular target: T4, Adenosine receptor A3 (Homo sapiens, UniProt P0DMS8); assay type: cell membranes, CHO-K1, Membrane; settings: cho-k1;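 also: radioligand binding assay with AB-MECA serving as the labeled ligand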
T4 sequence (P0DMS8 whole entry): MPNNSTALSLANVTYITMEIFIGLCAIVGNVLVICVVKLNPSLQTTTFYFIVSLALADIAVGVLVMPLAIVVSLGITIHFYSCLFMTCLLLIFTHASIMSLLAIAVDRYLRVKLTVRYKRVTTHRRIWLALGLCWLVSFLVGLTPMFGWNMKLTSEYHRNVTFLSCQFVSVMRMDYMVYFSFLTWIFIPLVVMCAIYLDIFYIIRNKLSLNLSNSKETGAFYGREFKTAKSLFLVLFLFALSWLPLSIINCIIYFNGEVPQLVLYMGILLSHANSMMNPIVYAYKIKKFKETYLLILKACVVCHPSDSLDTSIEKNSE

Cytochrome P450 3A4 = Cytochrome P450 3A4 (Homo sapiens, UniProt P08684); settings: bti-tn-5b1-4
Chain of Cytochrome P450 3A4 (P08684 whole entry): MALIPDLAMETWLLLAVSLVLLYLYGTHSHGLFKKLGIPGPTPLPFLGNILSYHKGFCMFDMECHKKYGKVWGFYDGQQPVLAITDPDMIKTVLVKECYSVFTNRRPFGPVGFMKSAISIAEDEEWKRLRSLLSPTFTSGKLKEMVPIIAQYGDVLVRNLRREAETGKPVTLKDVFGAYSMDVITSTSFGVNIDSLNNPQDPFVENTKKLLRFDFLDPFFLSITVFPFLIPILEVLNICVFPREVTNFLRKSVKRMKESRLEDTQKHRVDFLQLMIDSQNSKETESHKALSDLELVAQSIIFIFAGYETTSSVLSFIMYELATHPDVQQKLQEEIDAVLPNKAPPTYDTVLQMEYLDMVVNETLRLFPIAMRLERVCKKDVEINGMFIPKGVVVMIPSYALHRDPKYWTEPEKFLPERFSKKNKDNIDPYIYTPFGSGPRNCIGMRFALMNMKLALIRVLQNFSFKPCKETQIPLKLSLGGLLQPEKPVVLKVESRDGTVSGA

Estrogen receptor beta = Estrogen receptor beta (Homo sapiens, UniProt Q92731); settings: sf9
Chain of Estrogen receptor beta (Q92731 whole entry): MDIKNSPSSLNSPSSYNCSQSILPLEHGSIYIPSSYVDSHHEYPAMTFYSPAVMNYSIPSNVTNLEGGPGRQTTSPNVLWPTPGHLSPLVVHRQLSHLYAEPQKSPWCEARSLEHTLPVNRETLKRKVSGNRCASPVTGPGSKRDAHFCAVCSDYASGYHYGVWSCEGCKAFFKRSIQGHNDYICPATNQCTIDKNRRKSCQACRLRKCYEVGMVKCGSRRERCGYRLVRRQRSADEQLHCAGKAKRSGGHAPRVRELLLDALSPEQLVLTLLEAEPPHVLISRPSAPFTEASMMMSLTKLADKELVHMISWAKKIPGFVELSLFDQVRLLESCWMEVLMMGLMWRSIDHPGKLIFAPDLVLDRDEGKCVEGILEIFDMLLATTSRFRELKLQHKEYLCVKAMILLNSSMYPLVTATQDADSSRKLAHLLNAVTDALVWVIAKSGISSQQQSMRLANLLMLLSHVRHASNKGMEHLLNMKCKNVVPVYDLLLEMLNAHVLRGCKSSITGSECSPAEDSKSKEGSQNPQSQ
Also: in other assays of this panel Not Active means under 50% inhibition at 10 µM.

CADMIUM DICHLORIDE
Not Active: IC50 [1] | Ki [1] | IC50 [2] | Ki [2] | IC50 [3] | Ki [3] | IC50 [4] | Ki [4] | IC50 (Adenosine receptor A3) | Ki (Adenosine receptor A3) | IC50 (Cytochrome P450 3A4) | Ki (Cytochrome P450 3A4) | IC50 (Estrogen receptor beta) | Ki (Estrogen receptor beta)
